4 compounds from ChEMBL document CHEMBL6074703, “BODIPYS Based Fluorescent Markers To Monitor Autophagic Lysosomes and Lipid Droplets in TNBC” (ACS Med Chem Lett, 2024) can be followed below.

One may read the IC50 as the concentration that gives 50% inhibition.

Data set [1] relates to MDA-MB-231. The data set can be described thus: Antiproliferative activity against human MDA-MB-231 cells assessed as reduction in cell viability measured after 48 hrs under dark condition by MTT assay. Type of data set: functional, cell-based. The following applies: MDA-MB-231, 48 h. (In general: Tetrazolium dyes change colour on reduction, which living cells bring about.)

The test system of data set [2] is MDA-MB-231. The data set can be described thus: Antiproliferative activity against human MDA-MB-231 cells assessed as reduction in cell viability measured after 48 hrs under light condition in presence of chloroquine by MTT assay. It counts as functional, cell-based. To be noted: MDA-MB-231, 48 h.
The subject of data set [3] is MDA-MB-231. The data set can be described thus: Induction of ROS response in human MDA-MB-231 cells by measuring green fluorescence at 10 uM incubated for 3 hrs under light 24J/cm2 irradiation by H2DCFDA staining based confocal microscopy analysis. Type of data set: functional, cell-based.
Data set [4] in a line: Drug uptake in human MDA-MB-231 cells at 20 uM measured after 6 hrs by confocal microscopy based analysis. It counts as ADME, cell-based. To be noted: mda-mb-231, 6 h.
Data set [5] can be described thus: Selectivity ratio of IC50 for human MDA-MB-231 cells assessed as reduction in cell viability measured after 48 hrs under dark condition to IC50 human MDA-MB-231 cells assessed as reduction in cell viability measured after 48 hrs under light condition. Type of data set: functional.
Data set [6] deals with MDA-MB-231. Put plainly: Induction of ROS response in human MDA-MB-231 cells by measuring green fluorescence at 10 uM incubated for 3 hrs dark condition by H2DCFDA staining based confocal microscopy analysis. Type of data set: functional, cell-based.
The subject of data set [7] is MDA-MB-231. Put plainly: Antiproliferative activity against human MDA-MB-231 cells assessed as reduction in cell viability measured after 48 hrs under dark condition in presence of chloroquine by MTT assay. It counts as functional, cell-based. The following applies: MDA-MB-231, 48 h.
The subject of data set [8] is MDA-MB-231. The data set can be described thus: Antiproliferative activity against human MDA-MB-231 cells assessed as reduction in cell viability measured after 48 hrs under light condition by MTT assay. The following applies: MDA-MB-231, 48 h. It counts as functional, cell-based.
The nature of data set [9]: Drug uptake in human MDA-MB-231 cells at 20 uM measured after 24 hrs by confocal microscopy based analysis. It counts as ADME, cell-based. To be noted: mda-mb-231, 24 h.
Data set [10] deals with MDA-MB-231. Put plainly: Induction of autophagy in human MDA-MB-231 cells assessed as increase in calcium ion release in cytoplasm by measuring blue fluorescence at 10 uM incubated for 3 hrs followed by dark incubation by Fura-2 dye based confocal microscopy based analysis. Type of data set: functional, cell-based.
The nature of data set [11]: Selectivity ratio of IC50 for human MDA-MB-231 cells assessed as reduction in cell viability measured after 48 hrs under dark condition in presence of chloroquine to IC50 human MDA-MB-231 cells assessed as reduction in cell viability measured after 48 hrs under light condition in presence of chloroquine. Type of data set: functional.
Data set [12] deals with MDA-MB-231. Put plainly: Induction of autophagy in human MDA-MB-231 cells assessed as increase in green fluorescence at 20 uM under light irradiation by confocal microscopy based analysis. It counts as functional, cell-based.
The nature of data set [13]: Drug localization in lysosome of human MDA-MB-231 cells assessed as colocalization at 20 uM incubated for 3 hrs by MDH staining based confocal microscopy analysis. It counts as ADME, subcellular. To be noted: mda-mb-231, 3 h.
Data set [14] is described as follows: Drug localization in lysosome of human MDA-MB-231 cells assessed as colocalization at 20 uM incubated for 3 hrs by lyso-tracker blue staining based confocal microscopy analysis. Type of data set: ADME, subcellular. The following applies: mda-mb-231, 3 h.

The source made the active and inactive calls. The calls are words filed in the database; no cut-off is given here.

Consider `CCCCn1c2ccc(/C=C/c3ccc(N(c4ccccc4)c4ccccc4)cc3)cc2c2cc(C3=C4C=CC=[N+]4[B-](F)(F)n4cccc43)ccc21`, for which the IC50 in the data set on MDA-MB-231 [1] turned out to be 13.2 µM; in the data set on MDA-MB-231 [2], 1.17 µM; with MDA-MB-231 [7] it was 22.6 µM; in the data set with MDA-MB-231 [8] it was 0.95 µM. Moreover, the result in the data set with MDA-MB-231 [3], with MDA-MB-231 [6] and in the data set on MDA-MB-231 [10] was Active. In addition, the Drug uptake entry in data set [4] and in data set [9] was “Active” throughout. Moreover, the figures for the “Ratio IC50” value in [5] and in data set [11] were 13.84 and above 19.33, respectively.

On to `CCCCn1c2ccccc2c2cc(/C=C/c3ccc4c(c3)c3cc(C5=C6C=CC=[N+]6[B-](F)(F)n6cccc65)ccc3n4CCCC)ccc21`, for which the IC50 is above 50 µM in the data set with MDA-MB-231 [1], 5.57 µM with MDA-MB-231 [2], above 50 µM with MDA-MB-231 [7] and 17.1 µM in the data set with MDA-MB-231 [8]. In addition, the result with MDA-MB-231 [3], with MDA-MB-231 [12], in the data set with MDA-MB-231 [6] and in the data set with MDA-MB-231 [10] was Active. In addition, the Drug uptake entry in data set [4], in data set [13], in [9] and in data set [14] was “Active” throughout. For the same compound, the “Ratio IC50” value in [5] is listed as above 2.9; in data set [11] it was above 8.97.

As to `CO[C@H]1C[C@@H]2CC[C@@H](C)[C@@](O)(O2)C(=O)C(=O)N2CCCC[C@H]2C(=O)O[C@H]([C@H](C)C[C@@H]2CC[C@@H](O)[C@H](OC)C2)CC(=O)[C@H](C)/C=C(\C)[C@@H](O)[C@@H](OC)C(=O)[C@H](C)C[C@H](C)/C=C/C=C/C=C/1C` [SIROLIMUS], the IC50 in the data set with MDA-MB-231 [1] came to 11.2 µM; in the data set with MDA-MB-231 [8], 14.2 µM.

On to `CCN(CC)CCCC(C)Nc1ccnc2cc(Cl)ccc12` (centres undefined) [CHLOROQUINE], for which the IC50 in the data set with MDA-MB-231 [1] and with MDA-MB-231 [8] was above 50 µM throughout.
